Measurements from ChEMBL document CHEMBL4295262, “Evaluation of the utility of stem-cell derived cardiomyocytes for drug proarrhythmic potential” (2019).
Each block holds one molecule with its values, some of them ahead of it.

Tests used:
Settings in all cases: human, ipsc-cm
[1] = (§1) Electrical activity assay on cell lines treated with a given drug. DMSO was used as a vehicle and a control, unblinded dofetilide was used as a control.
[2] = as §1; remark: listed apart in the source
[3] = as §1; type: ADME, cell-based; design: FPDc: unit not given here
[4] = as §1; remark: listed apart in the source
[5] = as §1; type: ADME, cell-based; design: FPDc: unit not given here; remark: listed apart in the source
[6] = as §1; remark: listed apart in the source
[7] = as §1; type: ADME, cell-based
[8] = as §1; type: ADME, cell-based; remark: listed apart in the source
[9] = 0.1 µM, concentration (um) 0.1 uM
[10] = 0.003169 µM, concentration (um) 0.00316912 uM
[11] = 0.01001 µM, concentration (um) 0.0100144 uM
[12] = 0.03165 µM, concentration (um) 0.0316456 uM
[13] = 0.009507 µM, concentration (um) 0.00950736 uM
[14] = 0.03004 µM, concentration (um) 0.0300433 uM
[15] = 0.09494 µM, concentration (um) 0.0949367 uM
[16] = 0.3 µM, concentration (um) 0.3 uM

FPDc ([2]; 0.1 µM): 67.46
FPDc ([2]; 1 µM): 77.46
FPDc ([2]; 10 µM): 87.68
FPDc ([2]; 100 µM): 95.17
FPDc [3, 9]: 43.08
FPDc ([3]; 1 µM, concentration (um) 1 uM): 54.07
FPDc ([3]; 10 µM, concentration (um) 10 uM): 64.26
FPDc ([3]; 100 µM, concentration (um) 100 uM): 63.72
APDc ([4]; 0.1 µM): 53
FPD measurement ([4]; 0.1 µM): 53 FPDc
APDc ([4]; 1 µM): 57.83
FPD measurement ([4]; 1 µM): 57.83 FPDc
APDc ([4]; 10 µM): 63.09
FPD measurement ([4]; 10 µM): 63.09 FPDc
APDc ([4]; 100 µM): 74.46
FPD measurement ([4]; 100 µM): 74.46 FPDc
SMILES: Cc1cccc(C)c1OCC(C)N (stereo not drawn) [MEXILETINE]
FPD measurement ([1]; 0.1 µM): 1 Values Out Of 1 Were Excluded Due To Quiescence Or 0 Fpdc
FPDc ([1]; 0.1 µM): 1 Values Out Of 1 Were Excluded Due To Quiescence Or 0 Fpdc
FPD measurement ([1]; 1 µM): 1 Values Out Of 1 Were Excluded Due To Quiescence Or 0 Fpdc
FPDc ([1]; 1 µM): 1 Values Out Of 1 Were Excluded Due To Quiescence Or 0 Fpdc
FPD measurement ([1]; 10 µM): 1 Values Out Of 1 Were Excluded Due To Quiescence Or 0 Fpdc
FPDc ([1]; 10 µM): 1 Values Out Of 1 Were Excluded Due To Quiescence Or 0 Fpdc
FPD measurement ([1]; 100 µM): 1 Values Out Of 1 Were Excluded Due To Quiescence Or 0 Fpdc
FPDc ([1]; 100 µM): 1 Values Out Of 1 Were Excluded Due To Quiescence Or 0 Fpdc

SMILES: Cc1nc2n(c(=O)c1CCN1CCC(c3noc4cc(F)ccc34)CC1)CCCC2 [RISPERIDONE]
FPD measurement ([1]; 0.003169 µM): 1 Values Out Of 1 Were Excluded Due To Quiescence Or 0 Fpdc
FPDc ([1]; 0.003169 µM): 1 Values Out Of 1 Were Excluded Due To Quiescence Or 0 Fpdc
FPD measurement ([1]; 0.01001 µM): 1 Values Out Of 1 Were Excluded Due To Quiescence Or 0 Fpdc
FPDc ([1]; 0.01001 µM): 1 Values Out Of 1 Were Excluded Due To Quiescence Or 0 Fpdc
FPD measurement ([1]; 0.03165 µM): 1 Values Out Of 1 Were Excluded Due To Quiescence Or 0 Fpdc
FPDc ([1]; 0.03165 µM): 1 Values Out Of 1 Were Excluded Due To Quiescence Or 0 Fpdc
FPD measurement ([1]; 0.1 µM): 1 Values Out Of 1 Were Excluded Due To Quiescence Or 0 Fpdc
FPDc ([1]; 0.1 µM): 1 Values Out Of 1 Were Excluded Due To Quiescence Or 0 Fpdc
FPDc [5, 10]: 0.03911
FPDc [5, 11]: 0.03923
FPDc [5, 12]: 0.03847
FPDc [5, 9]: 0.03663
FPD measurement [3, 10]: 5 Values Out Of 5 Were Excluded Due To Quiescence Or 0 Apdc
FPDc [3, 10]: 54.79
FPD measurement [3, 11]: 5 Values Out Of 5 Were Excluded Due To Quiescence Or 0 Apdc
FPDc [3, 11]: 49.58
FPD measurement [3, 12]: 5 Values Out Of 5 Were Excluded Due To Quiescence Or 0 Apdc
FPDc [3, 12]: 47.1
FPD measurement [3, 9]: 5 Values Out Of 5 Were Excluded Due To Quiescence Or 0 Apdc
FPDc [3, 9]: 61.9
FPD measurement ([6]; 0.003169 µM): 55.22 FPDc
FPDc ([6]; 0.003169 µM): 55.22
FPD measurement ([6]; 0.01001 µM): 55.61 FPDc
FPDc ([6]; 0.01001 µM): 55.61
FPD measurement ([6]; 0.03165 µM): 57.01 FPDc
FPDc ([6]; 0.03165 µM): 57.01
FPD measurement ([6]; 0.1 µM): 65.06 FPDc
FPDc ([6]; 0.1 µM): 65.06

FPDc ([5]; 0.0009507 µM, concentration (um) 0.000950736 uM): 0.02441
FPDc ([5]; 0.003004 µM, concentration (um) 0.00300433 uM): 0.02167
FPDc ([5]; 0.009494 µM, concentration (um) 0.00949367 uM): 0.02089
FPDc ([5]; 0.03 µM, concentration (um) 0.03 uM): 0.02123
FPD measurement ([6]; 0.0009507 µM): 54.17 FPDc
FPDc ([6]; 0.0009507 µM): 54.17
FPD measurement ([6]; 0.003004 µM): 54.08 FPDc
FPDc ([6]; 0.003004 µM): 54.08
FPD measurement ([6]; 0.009494 µM): 55.38 FPDc
FPDc ([6]; 0.009494 µM): 55.38
FPD measurement ([6]; 0.03 µM): 55.57 FPDc
FPDc ([6]; 0.03 µM): 55.57
SMILES: CCOC(=O)N1CCC(=C2c3ccc(Cl)cc3CCc3cccnc32)CC1 [LORATADINE]
FPD measurement ([1]; 0.0009507 µM): 1 Values Out Of 1 Were Excluded Due To Quiescence Or 0 Fpdc
FPDc ([1]; 0.0009507 µM): 1 Values Out Of 1 Were Excluded Due To Quiescence Or 0 Fpdc
FPD measurement ([1]; 0.003004 µM): 1 Values Out Of 1 Were Excluded Due To Quiescence Or 0 Fpdc
FPDc ([1]; 0.003004 µM): 1 Values Out Of 1 Were Excluded Due To Quiescence Or 0 Fpdc
FPD measurement ([1]; 0.009494 µM): 1 Values Out Of 1 Were Excluded Due To Quiescence Or 0 Fpdc
FPDc ([1]; 0.009494 µM): 1 Values Out Of 1 Were Excluded Due To Quiescence Or 0 Fpdc
FPD measurement ([1]; 0.03 µM): 1 Values Out Of 1 Were Excluded Due To Quiescence Or 0 Fpdc
FPDc ([1]; 0.03 µM): 1 Values Out Of 1 Were Excluded Due To Quiescence Or 0 Fpdc

FPDc ([2]; 0.009507 µM): 63.48
FPDc ([2]; 0.03004 µM): 45.72
FPDc ([2]; 0.09494 µM): 31.81
FPDc ([2]; 0.3 µM): 19.65
FPD measurement [7, 13]: 39.69 FPDc
APDc ([4]; 0.009507 µM): 66.7
FPD measurement ([4]; 0.009507 µM): 66.7 FPDc
APDc ([4]; 0.03004 µM): 75.75
FPD measurement ([4]; 0.03004 µM): 75.75 FPDc
SMILES: CCOC(=O)C1=C(C)NC(C)=C(C(=O)OC)C1c1cccc([N+](=O)[O-])c1 (stereo not drawn) [NITRENDIPINE]
FPD measurement ([1]; 0.009507 µM): 1 Values Out Of 1 Were Excluded Due To Quiescence Or 0 Fpdc
FPDc ([1]; 0.009507 µM): 1 Values Out Of 1 Were Excluded Due To Quiescence Or 0 Fpdc
FPD measurement ([1]; 0.03004 µM): 1 Values Out Of 1 Were Excluded Due To Quiescence Or 0 Fpdc
FPDc ([1]; 0.03004 µM): 1 Values Out Of 1 Were Excluded Due To Quiescence Or 0 Fpdc
FPD measurement ([1]; 0.09494 µM): 1 Values Out Of 1 Were Excluded Due To Quiescence Or 0 Fpdc
FPDc ([1]; 0.09494 µM): 1 Values Out Of 1 Were Excluded Due To Quiescence Or 0 Fpdc
FPD measurement ([1]; 0.3 µM): 1 Values Out Of 1 Were Excluded Due To Quiescence Or 0 Fpdc
FPDc ([1]; 0.3 µM): 1 Values Out Of 1 Were Excluded Due To Quiescence Or 0 Fpdc
FPD measurement ([2]; 0.009507 µM): 5 Values Out Of 5 Were Excluded Due To Quiescence Or 0 Apdc
FPD measurement ([2]; 0.03004 µM): 5 Values Out Of 5 Were Excluded Due To Quiescence Or 0 Apdc
FPD measurement ([2]; 0.3 µM): 5 Values Out Of 5 Were Excluded Due To Quiescence Or 0 Apdc
FPDc [7, 13]: 6 Values Out Of 6 Were Excluded Due To Quiescence Or 0 Fpdc
FPDc [7, 14]: 6 Values Out Of 6 Were Excluded Due To Quiescence Or 0 Fpdc
FPDc [7, 15]: 6 Values Out Of 6 Were Excluded Due To Quiescence Or 0 Fpdc
FPDc [7, 16]: 6 Values Out Of 6 Were Excluded Due To Quiescence Or 0 Fpdc
FPD measurement [8, 13]: More Than Half The Wells Had A Quiescence Event Or Apdc Readings Of 0
FPDc [8, 13]: More Than Half The Wells Had A Quiescence Event Or Fpdc Readings Of 0
FPD measurement [8, 14]: More Than Half The Wells Had A Quiescence Event Or Apdc Readings Of 0
FPDc [8, 14]: More Than Half The Wells Had A Quiescence Event Or Fpdc Readings Of 0
FPD measurement [8, 15]: More Than Half The Wells Had A Quiescence Event Or Apdc Readings Of 0
FPDc [8, 15]: More Than Half The Wells Had A Quiescence Event Or Fpdc Readings Of 0
FPD measurement [8, 16]: 5 Values Out Of 5 Were Excluded Due To Quiescence Or 0 Apdc
FPDc [8, 16]: 5 Values Out Of 5 Were Excluded Due To Quiescence Or 0 Fpdc
APDc ([4]; 0.09494 µM): More Than Half The Wells Had A Quiescence Event Or Apdc Readings Of 0
FPD measurement ([4]; 0.09494 µM): More Than Half The Wells Had A Quiescence Event Or Apdc Readings Of 0
APDc ([4]; 0.3 µM): More Than Half The Wells Had A Quiescence Event Or Apdc Readings Of 0
FPD measurement ([4]; 0.3 µM): More Than Half The Wells Had A Quiescence Event Or Apdc Readings Of 0
